Laboratory results from ChEMBL document CHEMBL1201862, “PubChem BioAssay data set” (2004).
Calls of active or inactive are those of the source.

Legend:
[1] = tested on: HEK293; experiment: cells; assay type: functional, cell-based; settings: Homo sapiens
[2] = tested on: HEK293; experiment: NOD2 signaling inhibitors in MDP-stimulated cells, cell-based, uHTS, luminescence (AID 2001); assay type: functional; settings: Homo sapiens
[3] = Shn3 3'UTR reporter inhibitors, dose response, cell-based, Clone20 osteoblasts, firefly luciferase, cherry-picked (AID 624132); assay type: functional;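 also: firefly luciferase luminescence from reporter carrying the Shn3 3'UTR in osteoblasts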
[4] = control 3'UTR Renilla luciferase suppression, dose response, counter-screen for Shn3 inhibitor project, cell-based, Clone20-Shn3RL, cherry-picked (AID 624133); assay type: functional
[5] = tested on: HEK293; experiment: cells; assay type: functional, cell-based; settings: Homo sapiens; remark: listed apart in the source
[6] = tested on: HEK293; experiment: NOD1 signaling inhibitors, primary screen, cell-based, luminescence, uHTS (AID 1578); assay type: functional; settings: Homo sapiens
[7] = HepG2 cell cytotoxicity, dose response, cytotoxicity control for Shn3 inhibitor project, CellTiter-Glo, cherry-picked (AID 624134); assay type: functional, cell-based
[8] = biological target: Glyceraldehyde-3-phosphate dehydrogenase (Homo sapiens, UniProt P04406)
Sequence of Glyceraldehyde-3-phosphate dehydrogenase (P04406 whole entry): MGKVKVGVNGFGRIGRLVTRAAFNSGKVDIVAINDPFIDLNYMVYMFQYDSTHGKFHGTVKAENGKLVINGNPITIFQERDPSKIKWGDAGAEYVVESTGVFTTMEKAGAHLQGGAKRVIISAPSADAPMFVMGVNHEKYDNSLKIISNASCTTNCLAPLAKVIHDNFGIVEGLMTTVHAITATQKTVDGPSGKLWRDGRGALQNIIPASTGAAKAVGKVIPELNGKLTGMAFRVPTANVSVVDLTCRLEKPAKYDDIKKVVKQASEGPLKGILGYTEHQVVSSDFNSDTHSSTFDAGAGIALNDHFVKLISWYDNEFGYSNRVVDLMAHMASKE

[9] = biological target: Nonstructural protein 1 (Influenza A virus, UniProt Q194T2); assay type: functional, Influenza A virus (A/California/07/2009(H1N1))
Sequence of Nonstructural protein 1 (Q194T2 whole entry, the tested form may be a part): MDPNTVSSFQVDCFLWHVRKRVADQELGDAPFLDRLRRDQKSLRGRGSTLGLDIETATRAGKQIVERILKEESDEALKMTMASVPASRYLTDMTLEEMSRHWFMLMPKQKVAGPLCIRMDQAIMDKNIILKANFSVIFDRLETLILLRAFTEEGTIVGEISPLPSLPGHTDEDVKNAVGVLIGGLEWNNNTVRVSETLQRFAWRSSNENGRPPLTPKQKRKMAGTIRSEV

[10] = off-target signal loss in HeLa-CEM21 co-culture – HeLa F-luc CTL cells, cherry-picked, counter-screen for HIV-1 Env fusion inhibitor project, dose response (AID 652040); assay type: functional, cell-based;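 also: potency for signal decrease marking cytotoxic or nonspecific inhibition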
[11] = ZM109 Env clade C HIV-1 fusion inhibitors, dose response, HeLa effector, CEM target cells, luciferase, cherry-pick (AID 652058); assay type: functional, cell-based
[12] = inhibitors of HIV Env-driven cell fusion, dose response, cherry-pick (AID 652057); assay type: functional, cell-based
[13] = inhibitors of clade B AD8 Env fusion, dose response, cell-based, cherry-pick (AID 652062); assay type: functional;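 also: luciferase signal from cell-cell fusion driven by HIV-1 clade B AD8 Env; potency is for inhibitors of fusion seen as a drop in luminescence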
[14] = biological target: T1, Polyadenylate-binding protein 1 (Homo sapiens, UniProt P11940); experiment: PABP1 MLLE–PAM2 interaction inhibitors, dose response, miRNA deadenylation inhibitor project, biochemical, fluorescence polarization, Cy5-PAM2 peptide, secondary (AID 602260); assay type: functional; settings: read-out: IC50_Mean
T1 sequence (P11940 whole entry): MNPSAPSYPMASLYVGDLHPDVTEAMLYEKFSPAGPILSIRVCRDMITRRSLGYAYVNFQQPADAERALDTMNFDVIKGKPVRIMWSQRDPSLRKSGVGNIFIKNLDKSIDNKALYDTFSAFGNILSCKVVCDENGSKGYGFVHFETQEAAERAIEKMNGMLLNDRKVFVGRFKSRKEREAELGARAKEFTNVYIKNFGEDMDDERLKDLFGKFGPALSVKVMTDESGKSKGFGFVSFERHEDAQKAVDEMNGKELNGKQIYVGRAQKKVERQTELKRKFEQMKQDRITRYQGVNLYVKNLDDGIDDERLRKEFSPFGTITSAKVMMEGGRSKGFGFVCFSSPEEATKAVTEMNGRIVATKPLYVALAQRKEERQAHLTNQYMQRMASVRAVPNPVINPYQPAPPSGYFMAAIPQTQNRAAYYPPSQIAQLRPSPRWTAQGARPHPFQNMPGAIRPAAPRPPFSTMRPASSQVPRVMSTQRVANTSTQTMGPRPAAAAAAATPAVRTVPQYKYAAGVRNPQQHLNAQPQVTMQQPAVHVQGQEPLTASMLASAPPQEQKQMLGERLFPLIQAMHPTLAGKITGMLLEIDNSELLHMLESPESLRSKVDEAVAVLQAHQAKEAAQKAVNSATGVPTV

[15] = biological target: T1, Polyadenylate-binding protein 1; experiment: PABP1 MLLE–PAM2 binding inhibitor potency, dose response, biochemical, fluorescence polarization, FITC-PAM2 peptide (AID 602259); assay type: functional; settings: read-out: IC50_Mean
[16] = tested on: INS1; experiment: beta cell apoptosis inhibitors, cytokine rescue, dose response, luminescence, retest (AID 449756); assay type: functional, cell-based; settings: Rattus norvegicus;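 also: cell death triggered by IL-1 beta plus TNF-alpha plus IFN-gamma mixture; protective hits raise ATP signal compared with cytokine alone wells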
[17] = biological target: T2, Carboxy-terminal domain RNA polymerase II polypeptide A small phosphatase 1 (Homo sapiens, UniProt Q9GZU7); experiment: inhibitors of CTDSP1, concentration-response testing, biochemical assay, absorbance-based, actives from ultra-high-throughput screening (AID 540297); assay type: functional
T2 sequence (Q9GZU7 whole entry): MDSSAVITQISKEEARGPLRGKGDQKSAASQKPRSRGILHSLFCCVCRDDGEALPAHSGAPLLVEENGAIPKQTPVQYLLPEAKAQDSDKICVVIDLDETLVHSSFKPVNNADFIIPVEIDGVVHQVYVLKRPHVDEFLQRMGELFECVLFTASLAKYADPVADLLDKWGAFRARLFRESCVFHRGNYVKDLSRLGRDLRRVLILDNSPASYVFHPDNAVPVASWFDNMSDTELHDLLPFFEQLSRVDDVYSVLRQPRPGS

[18] = biological target: DNA dC->dU-editing enzyme APOBEC-3G (Homo sapiens, UniProt Q9HC16); assay type: functional;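 also: Dose-response counterscreen measuring inhibition of APOBEC3G DNA deaminase activity, run while confirming APOBEC3A inhibitors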
Sequence of DNA dC->dU-editing enzyme APOBEC-3G (Q9HC16 whole entry): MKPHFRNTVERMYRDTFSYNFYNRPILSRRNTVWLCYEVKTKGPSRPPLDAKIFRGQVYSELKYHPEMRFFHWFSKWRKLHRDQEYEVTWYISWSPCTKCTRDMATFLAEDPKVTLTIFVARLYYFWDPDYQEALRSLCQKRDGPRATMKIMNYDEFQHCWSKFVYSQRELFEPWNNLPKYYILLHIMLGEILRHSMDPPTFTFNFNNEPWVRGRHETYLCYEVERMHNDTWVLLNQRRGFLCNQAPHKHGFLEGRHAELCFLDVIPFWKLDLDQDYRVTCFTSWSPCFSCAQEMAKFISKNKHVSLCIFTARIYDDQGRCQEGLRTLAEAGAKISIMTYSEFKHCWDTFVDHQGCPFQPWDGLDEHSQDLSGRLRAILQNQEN

[19] = biological target: DNA dC->dU-editing enzyme APOBEC-3A (Homo sapiens, UniProt P31941); experiment: Dose Response confirmation of small molecule APOBEC3A DNA Deaminase Inhibitors via a fluorescence-based single-stranded DNA deaminase assay. [Related pubchem assays (depositor defined):AID493011, AID493024]; assay type: functional
Sequence of DNA dC->dU-editing enzyme APOBEC-3A (P31941 whole entry): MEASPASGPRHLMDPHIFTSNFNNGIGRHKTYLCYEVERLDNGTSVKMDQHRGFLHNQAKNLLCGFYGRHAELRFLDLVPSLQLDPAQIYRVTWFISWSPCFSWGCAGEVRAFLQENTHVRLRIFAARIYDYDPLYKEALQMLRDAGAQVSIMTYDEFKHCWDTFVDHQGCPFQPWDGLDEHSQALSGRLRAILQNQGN

[20] = biological target: T3, Aminopeptidase N (Plasmodium falciparum FcB1/Columbia, UniProt O96935); experiment: P. falciparum M1AAP inhibitors, biochemical, fluorogenic H-Leu-NHMec substrate, 1536-well (AID 1445); parameters: species or system Plasmodium falciparum 3D7, 3D7
T3 sequence (O96935 whole entry): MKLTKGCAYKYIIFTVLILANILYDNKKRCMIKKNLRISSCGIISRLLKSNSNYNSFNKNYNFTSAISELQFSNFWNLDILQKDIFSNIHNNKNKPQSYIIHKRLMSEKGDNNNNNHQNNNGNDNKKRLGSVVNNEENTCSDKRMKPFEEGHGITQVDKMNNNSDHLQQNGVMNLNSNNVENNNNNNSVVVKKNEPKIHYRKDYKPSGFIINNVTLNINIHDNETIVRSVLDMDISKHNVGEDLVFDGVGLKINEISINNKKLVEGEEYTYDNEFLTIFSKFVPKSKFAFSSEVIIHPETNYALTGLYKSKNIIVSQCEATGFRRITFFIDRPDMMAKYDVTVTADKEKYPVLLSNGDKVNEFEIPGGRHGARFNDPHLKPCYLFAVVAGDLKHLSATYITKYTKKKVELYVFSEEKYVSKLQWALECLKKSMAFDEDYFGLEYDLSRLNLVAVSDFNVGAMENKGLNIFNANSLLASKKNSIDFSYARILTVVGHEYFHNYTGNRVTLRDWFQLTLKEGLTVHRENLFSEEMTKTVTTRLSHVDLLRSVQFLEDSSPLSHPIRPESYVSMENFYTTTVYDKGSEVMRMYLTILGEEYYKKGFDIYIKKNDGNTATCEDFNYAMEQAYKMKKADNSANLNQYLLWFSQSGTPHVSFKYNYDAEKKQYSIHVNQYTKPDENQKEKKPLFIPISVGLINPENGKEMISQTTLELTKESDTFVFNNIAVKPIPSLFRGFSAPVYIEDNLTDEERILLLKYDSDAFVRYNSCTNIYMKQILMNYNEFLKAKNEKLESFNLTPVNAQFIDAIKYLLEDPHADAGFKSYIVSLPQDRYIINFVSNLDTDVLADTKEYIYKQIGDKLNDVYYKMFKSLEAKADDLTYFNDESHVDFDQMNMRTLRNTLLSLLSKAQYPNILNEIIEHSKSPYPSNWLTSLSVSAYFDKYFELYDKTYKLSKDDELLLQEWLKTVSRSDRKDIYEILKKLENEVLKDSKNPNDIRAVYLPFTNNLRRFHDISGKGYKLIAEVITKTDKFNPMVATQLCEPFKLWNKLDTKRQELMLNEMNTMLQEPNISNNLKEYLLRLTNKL

[21] = HEK293 cell cytotoxicity, dose response, cytotoxicity control, plate reader, cherry-picked samples (AID 743446); assay type: functional, cell-based
[22] = LGR2 antagonists, dose response, cell-based, HEK293, CRE-luciferase reporter, cherry pick, set 2 (AID 743343); assay type: functional;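 also: transfected cells were stimulated with diluted bursicon conditioned medium after compound addition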
[23] = A549 cell cytotoxicity, dose response, cytotoxicity control, plate reader, cherry-pick, antagonist series (AID 743412); assay type: functional, cell-based
[24] = MC4R antagonists, dose response, counter-screen for LGR2 antagonist project, cell-based, plate reader, cherry pick (AID 743444); assay type: functional;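 also: transfected HEK 293 cells stimulated with alpha-MSH peptide; potency of inhibitors of the alpha-MSH evoked signal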

## CCCOC(=O)c1[nH]c2c(c1C)C(=O)CC(c1cc(OC)c(OC)c(OC)c1)C2 (stereo not given)
[1]
  IC50: 6.21 µM (active)
[2]
  IC50: 4.9 µM (active)
[3]
  AC50: 1.92 µM (active)
[4]
  AC50: 6.82 µM (active)
[5]
  IC50: 16.4 µM (active)
[6]
  EC50: 2.78 µM (active)
[7]
  AC50: 52.9 µM (active)

## O=C(O)CS(=O)(=O)c1ccc2ccccc2c1
[8]
  IC50: > 100 µM (not active)

## O=C1C2CC=CCC2C(=O)N1c1nc(CCc2ccccc2)n[nH]1 (stereo not given)
[8]
  IC50: > 100 µM (not active)

## CC1(C)OC(c2ccccc2)=C/C(=C/C=C2C(=O)c3ccccc3C2=O)O1
[9]
  IC50: 6.6 µM (active)

## COc1cc(NC2c3ccccc3C(=O)N2Cc2ccc3c(c2)OCO3)cc(OC)c1OC (stereo not given)
[10]
  AC50: 14.7 µM (active)
[11]
  AC50: 5.79 µM (active)
[12]
  AC50: 6.77 µM (active)
[13]
  AC50: 10.1 µM (active)

## COc1ccc(O)c(/C=N/NC(=S)Nc2cccnc2)c1
[9]
  IC50: 3.04 µM (active)
[14]
  IC50: > 66 µM (inactive)
[15]
  IC50: > 66 µM (inactive)
[16]
  AC50: 1.56 µM (active)

## Cc1nnc(SCC(=O)Nc2ccc(O)c(C(=O)O)c2)s1
[8]
  IC50: > 100 µM (not active)

## CCCc1nc(SCC(=O)Nc2nnc(SCC)s2)c2c(=O)n(C)c(=O)n(C)c2n1
[1]
  IC50: 7.04 µM (active)
[2]
  IC50: 4.78 µM (active)
[5]
  IC50: > 20 µM (inactive)
[6]
  EC50: > 20 µM (inactive)

## O=C(COC(=O)/C=C/c1ccco1)Nc1ncc(C(F)(F)F)cc1Cl
[17]
  IC50: 4.77 µM (active)
[18]
  IC50: 29.9 µM (active)
[19]
  IC50: 16.9 µM (active)

## COc1cc(NC2c3ccccc3C(=O)N2Cc2ccccc2)cc(OC)c1OC (stereo not given)
[10]
  AC50: 9.63 µM (active)
[11]
  AC50: 13.1 µM (active)
[12]
  AC50: 8.41 µM (active)
[13]
  AC50: 7.97 µM (active)

## COc1ccc(/C=C(\NC(=O)c2ccccc2)C(=O)OC[C@@H]2CCC[N+]3(C)CCCCC23)cc1OC (stereo not given in full)
[17]
  IC50: 6.62 µM (active)
[18]
  IC50: 3.58 µM (active)
[19]
  IC50: 2.2 µM (active)

## CCCCN(CC)C(=O)CSc1nc2c(sc(=S)n2-c2ccc(OCC)cc2)c(=O)[nH]1
[20]
  IC50: 38.8 µM (active)

## Cc1ccc(S(=O)(=O)N(C)C)cc1NC(=O)Nc1c(-c2ccccc2)noc1C
[20]
  IC50: 12.9 µM (active)

## O=C(O)C(Cc1ccccc1)/N=C/c1c(O)oc2ccccc2c1=O (stereo not given)
[20]
  IC50: 20.6 µM (active)

## Oc1nc2ccccc2n1C1CCN(C(c2ccccc2OC(F)(F)F)c2nnnn2Cc2ccccc2)CC1 (stereo not given)
[21]
  AC50: 17.6 µM (active)
[22]
  AC50: 20.5 µM (active)
[23]
  AC50: 18.9 µM (active)
[24]
  AC50: 22.9 µM (active)
